US20020142982A1, “Method for regulating angiogenesis” (priority 1999, published 2002)
pKd: −log10 of the molar value. Values joined by “and” are separate entries in the source; they are usually repeats but may differ in a detail not shown here. Equal entries are not always repeated.

Tests used:
[1] = system: HUVEC; test: Actin cytoskeleton (stress fibers, cortical actin) in HUVEC, phalloidin staining; format: cell-based, human; conditions: 500 nM SPP, 30 minutes
Protocol: SPP is known to induce Rho-dependent actin stress fibers in NIH3T3 fibroblasts. To disclose Rho- or Rac-dependence, HUVEC were plated at 2×10^5 cells in 35 mm glass bottom petri dishes (Plastek cultureware, Mat Tek Corporation, Ashland Mass.). Two days later, recently confluent cells were washed and changed to medium M199 supplemented with 10% dialyzed charcoal-stripped fetal bovine serum (CFBS) and growth factors for 16 hours. Approximately 500-800 cells were then microinjected cytoplasmically with Rho inhibitor C3 exoenzyme (0.1 μg/μL, Calbiochem) or dominant negative N17Rac protein (0.35 μg/μl; Ridley, A., et al., Cell 70: 401-410 (1992)) using Femtotips (Eppendorf) at 100 hPa/0.2 sec. Injected cells were marked by coinjection of FITC-rabbit IgG (5 mg/mL, Cappel).
Subsequently, cells were treated with or without SPP. After treatment cells were washed with ice-cold PBS, fixed with 4% formaldehyde at room temperature or methanol at −20° C. for 15 minutes. In the case of formaldehyde fixation, cells were permeabilized with 0.2% Triton X-100 (TX-100). Actin microfilaments were visualized by staining with either FTOC- or TRITC-conjugated phalloidin (0.05 μg/mL, Sigma) for 30 minutes at room temperature.

[2] = system: MATRIGEL plugs implanted into athymic mice; test: MATRIGEL implant model of subcutaneous angiogenesis in athymic mice; format: in vivo
Protocol: To disclose if SPP regulates angiogenesis in vivo, A MATRIGEL implant model of subcutaneous angiogenesis in […] mice was used. In these experiments, female […] mice (4-6 weeks old) were injected subcutaneously with 0.4 mL MATRIGEL (approximate protein concentration 9.9 mg/mL, Collaborative Research) premixed with vehicle (fatty acid-free BSA, 115 μg/mL, Sigma), or FGF-2 (1.3 μg/mL) in the absence or presence of various concentrations of SPP. Seven days later, MATRIGEL plugs were harvested along with underlying skin and the gross angiogenic response was recorded under a Zeiss Stemi SV6 dissecting microscope. For quantification, MATRIGEL plugs were fixed with 4% paraformaldehyde in PBS, dehydrated in ethanol and xylene, embedded in paraffin, and sections subjected to hematoxylin and eosin staining. Angiogenesis was quantified by direct counting of vessels containing red blood cells residing in the stroma interface and the MATRIGEL implant. Each treatment involved 4 mice. 2 random sections from each were quantified and represented as mean±standard deviation. […]
In these experiments, MATRIGEL plugs were fixed, dehydrated, embedded, and sections were subjected to hematoxylin and eosin staining. Angiogenesis was quantified by direct counting of vascular structures as described. Vascular density for each treatment was quantified and represented as mean±standard deviation (n=4). […]

[3] = system: EDG-1; test: EDG-1 phosphorylation in 32P-labeled HEK293EDG-1 cells; format: cell-based; conditions: 100 nM S1P
Protocol: FIG. 26 is an SDS PAGE showing that S1P treatment induces EDG-1 phosphorylation. HEK293EDG-1 were labeled with [^32P]-orthophosphate, and stimulated with 100 nM S1P for indicated times. Some cultures were treated with 10 μM LY294002.
(§1) To label the EDG-1 receptor in HUVEC and HEK293EDG-1 cells, they were pre-incubated in phosphate-free DMEM (GIBCO-BRL) for 2 hr. Subsequently, cells were labeled with [^32P] orthophosphate (80 μCl/ml) for 3 hr. To examine the effect of P1-3 kinase, cultures were treated with wortmannin (100 nM) or LY294002 (10 μM) during tine last hour of labeling. After SPP stimulation, ^32P-labeled EDG-1 receptor was immunoprecipitated with either chicken anti-EDG-1 1gY or anti-M2, resolved on SDS-PAGE, and visualized by autoradiography.

[4] = system: EDG-1; test: Phosphorylation of endogenous EDG-1 in 32P-labeled HUVEC; format: cell-based, human; conditions: S1P 5-60 min
Protocol: (Upper panel) Normal HUVEC cells were labelled with [^32P]-orthophosphate, and stimulated with 100 nM S1P for indicated times. Cell extracts were immunoprecipitated with the affinity-purifed anti-EDG-1 IgY, separated on a SDS-PAGE and autoradiographed. (Middle panel) Some cells were treated with 10 μM LY294002 or 100 nM Wortmannin prior to stimulation with S1P and EDG-1 phosphorylation was examined as above. (Lower panel) Some cells were transduced with 100 MOI of wild-type (wt)-Akt, dominant negative (dn)-Akt or the β-gal virus for 12 h prior to stimulation with S1P. EDG-1 phosphorylation was examined as above.
as §1
Chicken anti-human EDG-1 antibodies against human EDG-1 polypeptide expressed in E. coli were raised in Aves Labs, Tigard, Oreg. This antibody specifically detected EDG-1 polypeptide in HUVEC cells and transfected HEK293 cells. […]

[5] = target: EDG-1 (Homo sapiens, UniProt P21453); conditions: 32P-SPP, HEK293EDG-1 cells; read-out: dissociation constant, Kd, of SPP binding to EDG-1; cited from earlier work
Sequence of EDG-1 (Homo sapiens, UniProt P21453) (P21453 whole entry): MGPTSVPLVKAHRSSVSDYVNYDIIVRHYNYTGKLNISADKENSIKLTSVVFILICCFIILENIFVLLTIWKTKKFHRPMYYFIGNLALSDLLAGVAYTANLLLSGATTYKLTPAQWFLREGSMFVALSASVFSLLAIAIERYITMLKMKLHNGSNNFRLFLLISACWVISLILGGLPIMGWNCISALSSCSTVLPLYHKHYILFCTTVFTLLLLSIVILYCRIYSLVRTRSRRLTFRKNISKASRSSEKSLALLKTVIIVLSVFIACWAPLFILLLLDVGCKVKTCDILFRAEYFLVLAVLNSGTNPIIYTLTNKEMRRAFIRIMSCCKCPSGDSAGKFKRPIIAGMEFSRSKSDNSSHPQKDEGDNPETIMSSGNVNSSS

CCCCCCCCCCCCC/C=C/[C@@H](O)[C@@H](N)COP(=O)(O)O [SPP, sphingosine-1-phosphate]
formation of stress fibers and cortical actin [1]: induced the formation of stress fibers
angiogenesis with SPP alone ([2]; MATRIGEL plug without FGF-2): did not induce significant angiogenesis
FGF-2 induced angiogenesis (vascular density) ([2]; SPP + FGF-2 1.3 μg/mL in MATRIGEL plug, seven days): dramatically enhanced
phosphorylation of EDG-1 [3]: induced a time-dependent phosphorylation
radiolabeling of the endogenous EDG-1 polypeptide [4]: increased
pKd [5]: 8.09 and 8.10
